# Data as given in patent US20210115000A1, “NILE RED DERIVATIVES FOR IMPROVED RATIOMETRIC IMAGING FOR NERVE SPECIFIC CONTRAST” (Oregon Health & Sciences University, priority 2018, published 2021).
# Legend:
# [1] = Spectroscopic analysis: absorbance, emission and quantum yield of Nile Red derivatives; type: physicochemical; conditions: in DMSO
# Procedure: Tandem liquid chromatography mass spectroscopy (LCMS) analysis (Agilent 1260 LC system with a 6224 time of flight (TOF) MS, Agilent, Santa Clara, Calif.) was performed using a 2.7 micron C18 column (4.6×50 mm, Agilent). High performance liquid chromatography (HPLC) purification (Agilent 1260 system with a preparative pump) was performed using a 5 micron C18 column (21.2×150 mm, Agilent). For both HPLC and LCMS, the mobile phase consisted of HPLC grade acetonitrile and water, treated with 0.1% formic acid. Spectroscopic analysis was performed on a Spectramax M5 spectrometer (Molecular Devices, Sunnyvale, Calif.) using a quartz cuvette with a 1 cm pathlength. Quantum yield was calculated according to equation (1).
# Where Ø is the quantum yield, F is the integrated fluorescence intensity, f is the absorbance at the excitation wavelength and n is the refractive index of the solvent. S refers to the quantum yield standard (Rhodamine B)^25 and X refers to the unknown sample.
# [2] = system: U2OS human osteosarcoma cell line; test: Nile Red derivative cell staining and imaging, fixed and live cells; type: cell-based; conditions: U2OS live, 1 μM, 5 min, imaged in staining solution
# Procedure: The U2OS human osteosarcoma cell line was cultured in Dulbecco's Modified Eagle Medium (DMEM, Thermo Fisher Scientific, Waltham, Mass.) with 10% fetal bovine serum (FBS, VWR, Radnor, Pa.) and 1% Penicillin/Steptomycin 100× (Thermo Fisher Scientific) at 37° C. in 5% CO2. For live cell imaging studies, Fluorobrite DMEM media (Thermo Fisher Scientific) was used in place of DMEM. For imaging studies, cells were grown in 96-well glass bottom plates (Cellvis, Mountain View, Calif.) for 48 hours, with a final confluence of <80%. Nile Red and its derivatives were prepared at 1-10 mM stock concentration in DMSO and diluted into media or buffer for cell staining and imaging studies.
# Cell staining studies were completed on fixed and live U2OS cells using Nile Red and each synthesized Nile Red derivative described as follows. For fixed cell staining, cells were washed once with 1× phosphate buffered saline (PBS), then fixed with 4% paraformaldehyde (PFA) for 20 minutes at room temperature. The PFA was removed and each well was washed three times for 5 mins per wash (3×5 mins) with 1×PBS. The Nile Red fluorophores were diluted into 1×PBS to a final concentration of 1 μM, incubated for 5 minutes with the cells, and images were collected without washing. Live cell staining was completed using two methods. First, cells were washed once with Fluorobrite DMEM. The Nile Red fluorophore solution was prepared in Fluorobrite DMEM by diluting to a final concentration of 1 μM for staining, where cells were stained for 5 minutes. The fluorophore containing media was removed and the cells were fixed for 20 minutes using 4% PFA. Cells were then washed 3×5 mins with Fluorobrite DMEM prior to imaging. Second, cells were washed with Fluorobrite DMEM without FBS once for 5 minutes. Nile Red fluorophore solutions were prepared in Fluorobrite without FBS at 1 μM final concentration for cell staining. The cells were stained with the prepared solution for 5 minutes and imaged in the staining solution. All images were collected at their ideal exposure times to permit visualization of stained intracellular structures.
# All ex vivo and cellular fluorescence and white light images were collected using a Zeiss AxioObserver inverted fluorescence microscope (Carl Zeiss, Oberkochen, Germany). All cell images were collected at 40× magnification and all tissue section images were collected at 10× magnification. Fluorescence excitation was completed using a Photofluor II broad band light source (89 North, Burlington, Vt.) filtered with a 545±12.5 nm bandpass excitation filter. Fluorescence images were collected using a 605±35 nm bandpass emission filter and a AxioCam 506 monochromo camera (Zeiss). All Filters were Purchased from Chroma Technologies (Bellows Falls, Vt.).
# [3] = system: CD-1 mouse sciatic nerve and surrounding muscle and adipose tissues; test: Ex vivo tissue section staining, imaging and fluorescence quantification; conditions: 100 μM, 40 min, sections with nerve, muscle, adipose
# Procedure: Cryosections of CD-1 mouse sciatic nerve and surrounding muscle and adipose tissues from unrelated experiments were cut from optimal cutting temperature (OCT, Fisher Scientific, Hampton, N.H.) embedded frozen tissues. Cryosectioned tissues were captured on superfrost plus slides (Fisher Scientific) at 10 μm thickness. The tissue sections were washed with 1×PBS for 2 minutes to remove OCT, and then fixed with 2% PFA for 15 mins. The tissue sections were then washed with 0.1% Tween 20 in 1×PBS (3×5 mins), followed by incubation with 100 μM of Nile Red and each Nile Red derivative formulated using 10% DMSO, 5% Kolliphore (Sigma Aldrich, St. Louis, Mo.), 63.75% FBS, and 21.25% 1× PBS as previously described.^26 Tissue sections were incubated with the formulated fluorophores for 40 minutes at room temperature, followed by washing with blank formulation not containing fluorophore (2×5 mins). Each tissue section was then washed with 1×PBS (2×5 mins), fixed for 15 minutes using 2% PFA, followed by a final wash with 1×PBS for 5 mins before mounting in glycerol (Fisher Scientific). Images were collected at an exposure time of 650 ms for all Nile Red and Nile Red derivative stained sections. Four tissue sections were stained for Nile Red and each Nile Red derivative, facilitating adipose to muscle and adipose to nerve contrast ratio quantification where tissue intensities were quantified using region of interest analysis with custom written MatLab code (The MathWorks, Natick, Mass.). For each tissue type, a representative area was selected, where a threshold based mask was set to determine tissue from background. The mean tissue intensity was calculated in adipose, nerve and muscle tissues as the intensity per second and used to calculate the adipose to nerve and adipose to muscle contrast ratios. All ex vivo and cellular fluorescence and white light images were collected using a Zeiss AxioObserver inverted fluorescence microscope (Carl Zeiss, Oberkochen, Germany). All cell images were collected at 40× magnification and all tissue section images were collected at 10× magnification. Fluorescence excitation was completed using a Photofluor II broad band light source (89 North, Burlington, Vt.) filtered with a 545±12.5 nm bandpass excitation filter. Fluorescence images were collected using a 605±35 nm bandpass emission filter and a AxioCam 506 monochromo camera (Zeiss). All Filters were Purchased from Chroma Technologies (Bellows Falls, Vt.).
# [4] = system: sciatic nerve or brachial plexus nerve sites (adipose, nerve, muscle tissue); test: In vivo imaging following direct/topical administration on rodent nerve sites; set-up: species or system male CD-1 mice; conditions: immediately following direct administration
# Source text: In vivo images were acquired using a previously published, custom-built small animal fluorescence imaging system, described briefly here.^27 Fluorescent images were obtained using a Qimaging EXi Blue monochrome camera (Surrey, British Columbia, CA) with a removable Bayer mask for collection of co-registered color and fluorescence images. A Photofluor II broad band light source (89 North) was expanded onto the surgical field through a liquid light guide and used unfiltered for white light illumination. Nile Red and NR5 were excitated using a 545 t 12.5 nm bandpass filter, while fluorescence emission images were collected with a 605±35 nm bandpass filter. Oxazine 4 (Exciton, West Chester, Ohio) was used for nerve and adipose co-staining and ratiometic imaging studies. Oxazine 4 was excited using a 620±30 nm bandpass filter, while fluorescence emission images were collected through a 700±37.5 nm bandpass filter. Approval for the use of animals in the study was obtained from the Institutional Animal Care and Use Committee (IACUC) at Oregon Health and Science University (OHSU). In vivo staining studies were carried out on male CD-1 mice using an optimized direct/topical administration protocol.^2 Staining was performed concurrently on no more than two nerve sites (sciatic nerve or brachial plexus) per mouse. Nile Red and all Nile Red derivatives were formulated in a previously published co-solvent formulation (10% DMSO, 5% Kolliphor, 63.75% serum and 21.25% PBS^14) at a final concentration of 100 μM. Each formulated fluorophore was incubated for 5 minutes on the nerve site (n=4 nerve sites/fluorophore), followed by 9 short flushes with PBS. The nerve site was then incubated with blank co-solvent not containing fluorophore for 5 minutes, followed again by 9 short flushes with PBS.
smiles,measurement,setting,value
"CCN(CC)c1ccc2nc3c4cc(-c5ccc(C#N)cc5)ccc4c(=O)cc-3oc2c1 [NR12, 4-(9-(diethylamino)-5-oxo-5H-benzo[a]phenoxazin-2-yl)benzonitrile]",Max Abs,[1],560 nm
same,Max Em,[1],635 nm
same,Stokes Shift,[1],75 nm
same,structures observed in live cells without washing,[2],Prominent lipid droplet like structures
same,tissue staining specificity on mouse tissue sections,[3],adipose specificity
same,adipose to muscle ratio,[4],"lower than Nile Red, adipose to muscle contrast was similar"
same,adipose to nerve ratio,[4],increased contrast over control autofluorescence with similar adipose to nerve contrast
